Reference: ChEMBL document CHEMBL1201862, “PubChem BioAssay data set” (2004)
Calls of active or inactive are those of the source.

Experiments:
[1] = molecular target: T1, Sphingosine 1-phosphate receptor 4 (Homo sapiens, UniProt O95977); assay: Fluorescence dose response cell-based high throughput screening assay for agonists of the Sphingosine 1-Phosphate Receptor 4 (S1P4). [Related pubchem assays: 1509 (Primary screen.), 1523 (Confirmation screen in triplicates.)]; assay type: functional
T1 sequence (O95977 whole entry): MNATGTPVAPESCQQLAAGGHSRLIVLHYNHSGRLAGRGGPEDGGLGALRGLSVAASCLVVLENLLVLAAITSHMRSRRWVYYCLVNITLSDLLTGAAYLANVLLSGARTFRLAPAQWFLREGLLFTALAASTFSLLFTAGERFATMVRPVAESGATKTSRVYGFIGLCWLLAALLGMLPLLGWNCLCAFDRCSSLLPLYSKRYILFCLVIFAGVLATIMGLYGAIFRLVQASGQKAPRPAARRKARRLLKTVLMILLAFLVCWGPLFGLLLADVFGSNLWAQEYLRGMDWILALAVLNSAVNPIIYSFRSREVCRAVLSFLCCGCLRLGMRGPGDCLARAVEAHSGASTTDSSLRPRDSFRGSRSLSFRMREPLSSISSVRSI

[2] = molecular target: Sphingosine 1-phosphate receptor 1 (Homo sapiens, UniProt P21453); assay: Fluorescence-based counterscreen assay for S1P4 agonists: Cell-based dose response high throughput screening assay to identify agonists of the Sphingosine 1-Phosphate Receptor 1 (S1P1). [Related pubchem assays (depositor defined):AID1509, AID1523, AID1801, AID463107, AID463118, AID463119, AID463122, AID463123, AID463129, AID463225, AID504400, AID504460]; assay type: functional
[3] = molecular target: Mitogen-activated protein kinase 10 (Homo sapiens, UniProt P53779); assay: Dose response biochemical screening assay for inhibitors of c-Jun N-Terminal Kinase 3 (JNK3). [Related pubchem assays: 746 ]
[4] = molecular target: Peroxisome proliferator-activated receptor gamma/Nuclear receptor coactivator 3 (Homo sapiens, UniProt P37231); assay: (§1) TR-FRET dose response biochemical High Throughput Screening assay for agonists of the steroid receptor coactivator 3 (SRC-3) recruitment by the peroxisome proliferator-activated receptor gamma (PPAR gamma): non-selective agonists. [Related pubchem assays: 1301 (Confirmation screen.), 1048 (Primary screen.)]; assay type: functional
[5] = molecular target: Peroxisome proliferator-activated receptor gamma/Nuclear receptor coactivator 1 (Homo sapiens, UniProt P37231); assay: as §1, with “1 (SRC-1)” for “3 (SRC-3)”, “assays (depositor defined):AID1300, AID1808, AID504735, AID631]” for “assays: 1301 (Confirmation screen.), 1048 (Primary screen.)]”; assay type: protein assay
[6] = molecular target: Peroxisome proliferator-activated receptor gamma/Nuclear receptor coactivator 2 (Homo sapiens, UniProt P37231); assay: TR-FRET dose response biochemical High Throughput Screening assay for agonists of the steroid receptor coactivator 2 (SRC-2) recruitment by the peroxisome proliferator-activated receptor gamma (PPAR gamma): non-selective agonists. [Related pubchem assays: 1297, 1032 ]; assay type: functional
Major prion protein = Major prion protein (Homo sapiens, UniProt P04156); assay type: functional, cell-based
[7] = molecular target: T2, Peroxisome proliferator-activated receptor gamma (Homo sapiens, UniProt P37231); assay: PPARg transcriptional activation, reporter cells – cell-based, luminescence, assay provider, dose response (AID 504447); assay type: functional
T2 sequence (P37231 whole entry): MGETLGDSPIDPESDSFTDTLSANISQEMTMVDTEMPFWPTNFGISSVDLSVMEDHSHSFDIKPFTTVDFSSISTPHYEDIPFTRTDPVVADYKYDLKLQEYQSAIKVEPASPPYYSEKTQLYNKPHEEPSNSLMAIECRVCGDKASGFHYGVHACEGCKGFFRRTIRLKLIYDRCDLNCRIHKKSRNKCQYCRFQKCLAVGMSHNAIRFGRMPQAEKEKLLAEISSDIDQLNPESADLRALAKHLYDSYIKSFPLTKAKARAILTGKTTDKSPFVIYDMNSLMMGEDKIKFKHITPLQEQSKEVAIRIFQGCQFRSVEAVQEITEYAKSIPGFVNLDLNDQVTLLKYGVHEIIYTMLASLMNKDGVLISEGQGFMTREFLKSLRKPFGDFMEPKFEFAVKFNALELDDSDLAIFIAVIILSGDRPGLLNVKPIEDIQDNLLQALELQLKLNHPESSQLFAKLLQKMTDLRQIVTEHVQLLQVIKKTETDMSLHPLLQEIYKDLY

[8] = CCR5-tropic HIV-1 fusion blockers – cell-based, CCR5-tropic Env, dose response (AID 2279); assay type: functional
[9] = molecular target: T2, Peroxisome proliferator-activated receptor gamma; assay: competitive ligand displacement at PPARg – biochemical, TR-FRET, LanthaScreen, PPARg partial agonist project, dose response (AID 504446)
[10] = molecular target: T2, Peroxisome proliferator-activated receptor gamma; assay: competitive ligand displacement at PPARg – biochemical, fluorescence polarization, PolarScreen, PPARg partial agonist project, dose response (AID 504453)
Vero = assay: viability of Vero cells under compound – cytotoxicity control for flavivirus capping enzyme inhibitors (AID 588742); assay type: functional; conditions: Chlorocebus sabaeus
[11] = molecular target: G-protein coupled receptor 55 (Homo sapiens, UniProt Q9Y2T6); assay: inhibition of LPI-stimulated GPR55 beta-arrestin translocation – imaging, U2OS, beta-arrestin-GFP, LPI agonist, primary screen (AID 2013); assay type: functional;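 note: antagonist potency measured as reduced agonist-driven arrestin aggregation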
[12] = molecular target: Peroxisome proliferator-activated receptor alpha (Homo sapiens, UniProt Q07869); assay: Late stage assay provider counterscreen for partial agonists of the peroxisome proliferator-activated receptor gamma (PPARg): Luminescence-based cell-based dose response assay for partial agonists of the peroxisome proliferator-activated receptor alpha (PPARA). [Related pubchem assays (depositor defined):AID1051, AID1300, AID1319, AID1679, AID1808, AID504446, AID504447, AID504452, AID504453, AID631]; assay type: functional
[13] = Luminescence Cell-Based Dose Retest to Confirm Inhibitors of Cancer Stem Cells. [Related pubchem assays (depositor defined):AID2717, AID2721]; assay type: functional; conditions: Homo sapiens
[14] = molecular target: Tyrosine-protein phosphatase non-receptor type 7 (Homo sapiens, UniProt P35236); assay type: functional
[15] = viability loss in Vero cells – cytotoxicity control for Vif-APOBEC3G degradation inhibitor project, dose response (AID 1117358); assay type: functional; conditions: Vero
[16] = molecular target: T3, Tyrosine-protein phosphatase non-receptor type 22 (Homo sapiens, UniProt Q9Y2R2); assay type: functional
T3 sequence (Q9Y2R2 whole entry): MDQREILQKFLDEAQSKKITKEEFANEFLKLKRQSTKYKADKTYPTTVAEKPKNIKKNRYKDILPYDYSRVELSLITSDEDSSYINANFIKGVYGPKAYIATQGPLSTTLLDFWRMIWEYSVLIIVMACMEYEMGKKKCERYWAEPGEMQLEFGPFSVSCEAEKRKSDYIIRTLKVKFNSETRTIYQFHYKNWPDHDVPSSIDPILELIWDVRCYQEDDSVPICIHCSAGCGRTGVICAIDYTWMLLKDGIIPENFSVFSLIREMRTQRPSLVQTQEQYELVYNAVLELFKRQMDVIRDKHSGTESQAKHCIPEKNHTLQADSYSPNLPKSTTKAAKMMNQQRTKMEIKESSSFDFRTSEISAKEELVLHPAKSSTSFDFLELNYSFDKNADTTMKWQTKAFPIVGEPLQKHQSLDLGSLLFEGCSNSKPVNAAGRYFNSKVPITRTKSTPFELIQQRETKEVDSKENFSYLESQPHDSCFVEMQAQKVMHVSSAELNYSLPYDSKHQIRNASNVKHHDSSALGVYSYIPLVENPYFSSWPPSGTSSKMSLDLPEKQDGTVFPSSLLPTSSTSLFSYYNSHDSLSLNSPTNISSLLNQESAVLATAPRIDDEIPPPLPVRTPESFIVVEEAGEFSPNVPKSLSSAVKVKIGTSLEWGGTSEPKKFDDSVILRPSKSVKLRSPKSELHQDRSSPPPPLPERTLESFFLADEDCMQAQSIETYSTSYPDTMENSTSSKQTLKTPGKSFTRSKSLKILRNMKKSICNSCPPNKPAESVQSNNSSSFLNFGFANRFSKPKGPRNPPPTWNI

[17] = molecular target: T3, Tyrosine-protein phosphatase non-receptor type 22; assay type: functional; remark: listed apart in the source
fMet-Leu-Phe receptor = molecular target: T4, fMet-Leu-Phe receptor (Homo sapiens, UniProt P21462); assay: formyl peptide receptor binders – dose response (AID 519); assay type: functional
T4 sequence (P21462 whole entry): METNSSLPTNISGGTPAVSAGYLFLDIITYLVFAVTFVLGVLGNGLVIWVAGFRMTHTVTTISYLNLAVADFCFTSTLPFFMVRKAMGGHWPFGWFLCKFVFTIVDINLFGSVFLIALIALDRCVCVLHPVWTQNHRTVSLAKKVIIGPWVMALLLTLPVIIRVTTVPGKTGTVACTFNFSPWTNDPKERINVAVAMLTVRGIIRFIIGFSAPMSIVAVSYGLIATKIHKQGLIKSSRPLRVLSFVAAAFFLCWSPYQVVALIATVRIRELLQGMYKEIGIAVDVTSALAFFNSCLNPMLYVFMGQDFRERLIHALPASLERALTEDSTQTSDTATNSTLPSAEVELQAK

[18] = molecular target: Kappa-type opioid receptor (Homo sapiens, UniProt P41145); assay: SAR analysis of small molecule agonists of the kappa opioid receptor via a luminescent beta-arrestin assay - Set 3. [Related pubchem assays (depositor defined):AID1777, AID1785, AID1786, AID1966, AID2133, AID2136, AID2284, AID2500]; assay type: functional
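Throughout, for AC50: cells exposed to compound for roughly 70 hours or longer before luminescence read.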

Compound: Clc1ccc(/C=C\c2[nH]ccc3c4ccccc4nc2-3)cc1
- EC50 [1]: 4.41 µM (active)
- EC50 [2]: 2.18 µM (active)

Compound: CC(Sc1ccc2ccccc2n1)C(=O)O (configuration not stated)
- IC50 [3]: 4.87 µM (active)
- EC50 [4]: > 79.4 µM (not active)
- EC50 [5]: > 79.4 µM (inactive)
- IC50 (cells): > 138 µM (inactive)
- EC50 [6]: > 79.4 µM (not active)
- IC50 (Major prion protein): 1.56 µM (active)

Compound: COc1ccc(-c2nn(-c3ccccc3)cc2/C=C2/SC(=S)N(CCC(=O)O)C2=O)c(C)c1
- EC50 [7]: 0.283 µM (active)
- IC50 [8]: 47.4 µM (active)
- IC50 [9]: 0.194 µM (active)
- IC50 [10]: 0.152 µM (active)
- CC50 (Vero): > 40 µM (active)
- IC50 [11]: 0.665 µM (active)
- EC50 [12]: > 3 µM (inactive)
- AC50 [13]: 9.19 µM (active)

Compound: O=C(O)CCCNc1cc(N2CCC3(CC2)OCCO3)c2noc3c2c1C(=O)c1ccccc1-3
- IC50 [14]: 69.3 µM (active)
- CC50 [15]: > 40 µM (active)
- IC50 [16]: 61.9 µM (active)
- IC50 [17]: 68.9 µM (active)
- Ki (fMet-Leu-Phe receptor): 34.1 µM (inactive)

Compound: FC(F)(F)c1cc(CSc2nnc(-c3ccccn3)n2Cc2ccccc2Cl)ccc1Cl
- EC50 [18]: 4.3 µM (active)
